The source of these data is US7371529B2, “Methods and compositions for modulating gluconeogenesis using PGC-1” (Dana-Farber Cancer Institute, Inc., priority 2001, dated 2008).

The target in experiment [1] is T1, HNF-4α (Homo sapiens, UniProt P41235).
T1 construct: made in house; host or cells: TNT reticulocyte lysate in vitro transcription/translation (Promega)
T1 sequence (P41235 1-474): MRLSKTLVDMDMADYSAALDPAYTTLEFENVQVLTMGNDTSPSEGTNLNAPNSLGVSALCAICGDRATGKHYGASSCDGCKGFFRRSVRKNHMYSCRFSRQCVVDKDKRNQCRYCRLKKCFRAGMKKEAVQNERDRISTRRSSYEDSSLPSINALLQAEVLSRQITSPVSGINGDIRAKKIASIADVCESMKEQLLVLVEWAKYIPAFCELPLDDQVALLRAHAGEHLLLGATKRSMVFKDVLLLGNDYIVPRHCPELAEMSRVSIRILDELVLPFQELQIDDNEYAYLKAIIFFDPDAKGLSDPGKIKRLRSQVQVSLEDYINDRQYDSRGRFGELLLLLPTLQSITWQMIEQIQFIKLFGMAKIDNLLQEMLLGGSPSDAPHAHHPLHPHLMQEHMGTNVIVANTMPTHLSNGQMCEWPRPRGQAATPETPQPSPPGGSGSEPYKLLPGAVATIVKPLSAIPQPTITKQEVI
In words: Multimerized AF1 reporter assay in NIH 3T3 fibroblasts, HNF-4α. The class given is cell-based. The note with it: NIH 3T3, no hormone or ligand added. As for the experimental part: (§1) NIH 3T3 or Fao hepatoma cells were cultured in 10% FBS-RPMI and transfected at 70-90% confluency using Fugene 6 (Roche). The ratio of DNA:Fugene was 1:2. Culture medium was changed after 24 hours. Cells were collected 48 hours after transfection and β-galactosidase and luciferase assays were performed. Transfections were performed in duplicate and repeated at least twice.
(§2) To examine these functional interactions at the AF1 site with intact transcription factors, reporter gene assays were performed using PGC-1, wild-type HNF-4α and COUP-TF proteins, and a multimerized AF1 response element. To avoid interference with endogenous liver factors, these experiments were done in NIH 3T3 fibroblasts. Transfections were done as described above for FIG. 4. Neither HNF-4α, COUP-TF, nor PGC-1 activates these target sequences alone (FIG. 6).
Background: Reporter assays use an easily measured gene product as a stand-in for the process of interest.

The test system of experiment [2] is FKHR. In words: G6 Pase promoter-reporter, FKHR coactivation. Format: cell-based. The note with it: PGC-1 cotransfected with FKHR.
Experiment [3] has as its system FKHR. In words: 3×IRS promoter-luciferase reporter, FKHR coactivation. The note with it: PGC-1 cotransfected with wild-type or mutant FKHR. Format: cell-based.
For experiment [4], the system named is G6 Pase promoter. In words: G6 Pase promoter-luciferase reporter in SV40 transformed hepatocytes. Format: cell-based. The protocol: PGC-1 and/or HNF-4α were cotransfected into SV40 transformed hepatocytes, and the ability to coactivate the glucose-6-phosphatase (G6 Pase) promoter was determined using a luciferase reporter gene. Experiments were performed in duplicate.

The test system of experiment [5] is PEPCK promoter. Put plainly: PEPCK promoter-luciferase reporter assay in Fao hepatoma cells. The class given is cell-based, rat. As for the experimental part:
as §1
The ability of PGC-1 to activate the PEPCK-promoter (using a luciferase reporter gene) in hepatoma cells was examined. Fao rat hepatoma cells were maintained in 10% FBS-RPMI and transfected in a 6 well format with 200 ng of pPL32-PEPCK-luciferase (or pGL3-PEPCK-luciferase), 100 ng CMV β-galactosidase, and […] of pCMV or pCMV-PGC-1 per well. Cells were harvested for luciferase assays 48 hours after transfection, and the readings were normalized by β-galactosidase activity. […] In the transient transfection assays described above, PGC-1 activated the wild-type PEPCK promoter-reporter gene by approximately 10-fold (FIG. 4).
To identify the regulatory elements mediating the effect of PGC-1 on this promoter, mutant constructs were utilized in which various regulatory elements within the PEPCK-luciferase reporter construct were substituted by a yeast Gal4 DNA binding element (FIG. 1; Wang, J. C. et al. (1999) Mol. Endocrinol. 13:604-618). […] However, mutation of the AF1 or AF3 site (or both) each reduced the PGC-1-mediated activation by 50-60%; a combination of the AF1-to-Gal4 substitution and additional block mutations in the GR binding sites (GR1, GR2) led to a small but significant further decrease. […] A replacement of the P3 (I) site, an element shared by the cAMP and thyroid hormone response units, by the Gal4 DNA binding element caused a modest (25%) reduction in the PGC-1 mediated activation of the PEPCK reporter. […] It also appears that there are other unidentified regulatory elements on the PEPCK promoter through which PGC-1 can produce a partial activation.
The AF1 and AF3 sites are both DR-1 type sequences that can bind several nuclear receptors. […] The AF3 element has also been associated with COUP-TF binding (Scott et al (1996) supra). […] Vectors encoding the Gal4 DBD, Gal4 DBD-HNF-4α, or Gal4 DBD-COUP-TF fusion proteins (500 ng per well) were cotransfected with the mutant receptors, containing a substitution of a particular element within the Gal4 DBD, to determine whether they can rescue the PGC-1 activity. […] In contrast, cotransfection of a Gal4-COUP-TF construct produced only a partial restoration (approximately 20-30% of that achieved by HNF-4α), and cotransfection of the Gal4 DBD alone had virtually no effect on the PGC-1 mediated activation. Very similar results were obtained at the AF3 site.
The role of the glucocorticoid response elements in the PEPCK promoter was also examined. […] Fao hepatoma cells were transfected as described above for FIG. 4. Dexamethasone (dex, 1 μM final concentration) was added for the final 24 hours.

The test system of experiment [6] is gluconeogenic, ketogenic, and beta-oxidation genes. In words: Gene induction in control (floxed) or HNF-4α null primary hepatocytes. Format: cell-based. The note with it: presence and absence of HNF-4α. An excerpt: The ability of PGC-1 to induce mRNA expression of gluconeogenic, ketogenic, and beta-oxidation genes was examined in cells lacking HNF-4α. Control (floxed) or HNF-4α null cells (primary hepatocytes) were infected with adenoviruses containing GFP (control) or PGC-1 and were either untreated, serum-starved, or treated with dexamethasone and cAMP.

Experiment [7] relates to COUP-TF. Put plainly: Multimerized AF1 reporter assay in NIH 3T3 fibroblasts, COUP-TF. The class given is cell-based. The protocol: as §1, §2
Experiment [8] deals with PGC-1 protein, glucose-6-phosphatase and PEPCK mRNA. Put plainly: Adenovirus infusion in Wistar rats, liver immunoblot and Northern. The class given is in vivo. The note with it: rat liver, adenoviral PGC-1. The protocol: Male Wistar rats (Charles River) were fed with standard laboratory food and weighed 300-350 g at the time of the studies. Animals were anesthetized by injection of 0.1 ml per 100 g body mass of a solution containing 25 mg/ml of xylazine (Phoenix Scientific) and 0.5 mg/ml of acepromazine (Fermenta Animal Health). CMV-GFP and CMV-PGC-1 adenoviruses were purified by CsCl gradient centrifugation as described in Becker, T. et al. (1994) Methods Cell Biol. 43:161-189. Pure recombinant virus (1×10^12 plaque forming units), suspended in 0.5 ml of phosphate buffered saline (PBS), was injected into anesthetized rats through the tail vein. Animals were allowed to recover and were fed standard food ad libitum. Five days after adenovirus infusion, tail vein blood was collected at 14:00 for measurement of glucose concentration, using a β-glucose analyzer (HemoCue AB). After the measurement, animals were sacrificed. Blood samples were collected from the heart, centrifuged at 1300 g for 15 minutes at 4° C. in 15 ml centrifuge tubes containing 50 μl of 0.4 M EDTA, and stored at −20° C. before measurement of insulin concentrations with a rat insulin specific radioimmunoassay kit (Linco Research). Liver samples were collected, snap frozen in liquid nitrogen, and stored at −80° C. Aliquots of frozen liver samples were processed for northern blot or immunoblot analysis. […]
(A western blot detects proteins with antibodies after separation by electrophoresis.)

Experiment [9] addresses T2, FKHR (Homo sapiens, UniProt Q12778).
T2 construct: made in house; host or cells: in vitro translation
In words: In vitro interaction with in vitro translated FKHR. Format: binding. The note with it: GST fusion constructs.

T2 sequence (Q12778 whole entry, species assumed): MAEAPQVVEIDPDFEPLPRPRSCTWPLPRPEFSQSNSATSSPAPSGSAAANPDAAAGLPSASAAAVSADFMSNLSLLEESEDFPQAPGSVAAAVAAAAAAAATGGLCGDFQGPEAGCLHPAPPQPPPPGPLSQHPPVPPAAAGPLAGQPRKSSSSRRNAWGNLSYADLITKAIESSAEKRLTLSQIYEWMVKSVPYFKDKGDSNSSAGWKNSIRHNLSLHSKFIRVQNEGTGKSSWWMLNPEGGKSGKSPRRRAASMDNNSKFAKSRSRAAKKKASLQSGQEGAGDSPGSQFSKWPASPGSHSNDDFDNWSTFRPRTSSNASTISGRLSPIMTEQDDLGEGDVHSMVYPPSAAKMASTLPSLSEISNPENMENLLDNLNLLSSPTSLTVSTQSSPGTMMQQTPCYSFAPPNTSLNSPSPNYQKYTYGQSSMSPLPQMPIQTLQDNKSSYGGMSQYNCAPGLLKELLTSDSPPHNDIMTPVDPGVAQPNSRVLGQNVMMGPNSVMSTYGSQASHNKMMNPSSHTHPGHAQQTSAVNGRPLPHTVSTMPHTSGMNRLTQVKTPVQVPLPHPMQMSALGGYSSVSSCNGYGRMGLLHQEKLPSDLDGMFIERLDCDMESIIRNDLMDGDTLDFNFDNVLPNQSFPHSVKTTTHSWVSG

As for “PGC-1: coactivator of nuclear receptors, expressed from transfected pCMV-PGC-1 or from adenovirus”, the “coactivation of HNF-4α on multimerized AF1 response element” value in [1] is given as “dramatically coactivates”. Also, the “coactivation on wild type G6 Pase promoter-reporter” value in experiment [2] is “coactivated FKHR”. The “activation of 3×IRS promoter-luciferase reporter” value in experiment [3] was “can coactivate FKHR”. Further, the “activation of G6 Pase promoter-luciferase reporter” value in [4] (cotransfected with HNF-4α) is reported as “strong coactivation”. In addition, the “activation of G6 Pase promoter-luciferase reporter” value in experiment [4] (transfected alone) is on record as “no activation”. Besides, the “activation of wild-type PEPCK promoter-reporter gene” value in experiment [5] (Fao cells, 1 mg pCMV-PGC-1 per well, 48 hours) was “approximately 10 fold”. In experiment [5] (P3 (I) site replaced by Gal4 DNA binding element), the “reduction in PGC-1 mediated activation of the PEPCK reporter” value came to 25%. Also, the “coactivation of PEPCK promoter through the glucocorticoid receptor” value in [5] (dexamethasone 1 μM for the final 24 hours) is given as “in a ligand dependant manner”. Besides, the “magnitude of PGC-1 activation” value in experiment [5] (mutation in the AF2 or the CRE site) is “did not produce an appreciable effect”. Besides, the “reduction of PGC-1-mediated activation” value in [5] (mutation of the AF1 or AF3 site (or both)) is 50-60%. Also, the “induction of gluconeogenic genes glucose-6-phosphatase and PEPCK” value in experiment [6] is given as “in the presence, but not the absence, of HNF-4α”. In experiment [7], the “coactivation of COUP-TF on multimerized AF1 response element” value is given as “no ability to coactivate”. Also, in [8], the “liver PEPCK mRNA (Northern)” value is on record as “increased expression”; the “liver mRNA for glucose-6-phosphatase (Northern)” value was “dramatic and uniform elevation”.

B1: GST-PGC-1 (amino acids 1-190): GST fusion protein of amino acids 1-190 of PGC-1 (SEQ ID NO:2) (protein)
chain: MAWDMCSQDSVWSDIECAALVGEDQPLCPDLPELDLSELDVNDLDTDSFLGGLKWCSDQSEIISNQYNNEPANIFEKIDEENEANLLAVLTETLDSLPVDEDGLPSFDALTDGAVTTDNEASPSSMPDGTPPPQEAEEPSLLKKLLLAPANTQLSYNECSGLSTQNHAANHTHRIRTNPAIVKTENSWSN
modifications: left off: a dimerising Fc or GST
For B1, in experiment [9], the “physical interaction with FKHR” value is “not”.
